{"source": "patent US20200157048A1", "about": "“(2E,4E)-5-PHENYL-PENTA-2,4-DIEN-1-ONE DERIVATIVE” (BIOWAY., INC, priority 2018, published 2020)", "key": {"Pparα mRNA": {"system": "Pparα mRNA", "test": "qRT-PCR Pparα mRNA level in steatosis-induced Huh-7 cells", "format": "cell-based, Human", "conditions": "steatosis-induced (OA/PA) Huh-7 cells; 10 μM; 24 hours", "protocol": "In Experimental Example 5, the Huh-7 cells were plated in 6 wells at 4×10^5 cells/mL and incubated under an atmosphere containing 5% CO2 at 37° C.\n(§1) One day later, the cell density approached about 80 to 90%. The medium was changed to an FBS-free RPMI1640 medium, and incubated under an atmosphere containing 5% CO2 at 37° C. for 24 hours.\nHuh-7 cells of each well, excluding control cells, were pretreated with an OA/PA mixture for one hour to induce steatosis. The control cells were pretreated with 1% FA-free BSA.\nEach well was treated with 10 μM of a test compound, and then the cells were incubated for 24 hours. The control cells and OA/PA-treated cells were treated with DMSO. Cells of a positive control were treated with 10 μM of resveratrol, 10 μM of piperine, and 10 μM of YU2014. The medium was entirely aspirated, and the cells were washed with PBS (phosphate buffered saline, Corning, Manassas, Va., USA) two times.\nTotal RNA was extracted using a RNeasy RNA isolation kit (Qiagen, Hilden, Germany).\n10 μL of β-mercaptoethanol (Sigma-Aldrich) per 1 mL of lysis buffer was added, thereby preparing an RNA lysis buffer. […]\nAn RNA concentration was measured at O.D. 260 nm using a nanophotometer N60 (Implen, Munich, Germany). The concentration and purity of RNA were measured at O.D. 260/280 nm and calculated as a ratio. […]\nQuantitative analyses for the genes in Table 3 were performed."}, "Huh-7 cells": {"system": "Huh-7 cells", "test": "Oil-Red O staining and lipid accumulation in steatosis-induced Huh-7 cells", "format": "cell-based", "conditions": "Huh-7 cells pretreated with OA/PA (R-28: OA); 10, 20 or 40 μM (R-28: 2, 10, 50 μM); 24 hours", "protocol": "Huh-7 cells were maintained in a RPMI1640 medium containing 10% FBS, 100 U/mL of penicillin, and 100 μg/mL of streptomycin. All reagents were purchased from Life Technologies Corporation (Grand Island, N.Y., USA).\nThe Huh-7 cells were incubated under an atmosphere containing 5% CO2 at 37° C.\nIn Experimental Example 4, the Huh-7 cells were plated in 24 wells at 3×10^5 cells/mL and incubated under an atmosphere containing 5% CO2 at 37° C.\nas §1\nHuh-7 cells of each well, excluding control cells, were pretreated with an OA/PA mixture (however, R-28 is OA) for 1 hour to induce steatosis. Control cells were pretreated with 1% FA-free BSA.\nEach well was treated with 10 μM, 20 μM, or 40 μM of a test compound (however, for R-28, 2 μM, 10 μM and 50 μM), and cultured for 24 hours. The control cells and the OA/PA-treated cells were treated with DMSO. […]\nImages were obtained from a Cytation 5 Cell Imaging Multi-Mode Reader (BioTek, Winooski, Vt., USA). […]\n200 μL of isopropyl alcohol was added to each well, and the cells were collected in a 96-well plate. Absorbance was measured at 540 nm, and data was analyzed."}}, "note": "Entries after “also recorded” stand apart in the source; their conditions may differ.", "data": [{"smiles": "CSc1ccc(/C=C/C=C/C(=O)N2CCCCC2)cc1", "note": "[YU2014, (2E,4E)-5-(4-(methylthio)phenyl)-1-(piperidine-1-yl)penta-2,4-dien-1-one]", "values": [{"measurement": "Pparα mRNA level (FIG. 10)", "setting": "Pparα mRNA", "result": "hardly increased; also recorded: no effect"}, {"measurement": "degree of lipid staining (ORO, absorbance at 540 nm, FIGS. 5-8)", "setting": "Huh-7 cells", "result": "not greatly changed"}]}]}
